One assay deals with Histone deacetylase. Format: cell-based, Homo sapiens. Particulars: hela.
The target of assay [1] is Receptor tyrosine-protein kinase erbB-2 (Homo sapiens, UniProt P04626).
Assay [2] deals with Epidermal growth factor receptor (Homo sapiens, UniProt P00533).
Assay [3] has as its system HepG2. Nature of the assay: Antitumor activity against human HepG2 cells xenografted in nude CD1 mouse at 25 mg/kg, po daily relative to control. The assay is classed as functional.
A further assay deals with MDA-MB-231. Briefly: Antiproliferative activity against human MDA-MB-231 cells after hrs by ATP content assay. The assay is classed as functional, cell-based.
Assay [4] deals with HepG2. Nature of the assay: Antitumor activity against human HepG2 cells xenografted in nude CD1 mouse at 72 mg/kg, iv daily relative to control. Format: functional.
Assay [5] relates to HepG2. Nature of the assay: Antiproliferative activity against human HepG2 cells after hrs by ATP content assay. Format: functional, cell-based.
For another assay, the system named is SK-BR-3. Briefly: cells. The assay is classed as functional, cell-based. Particulars: Homo sapiens.
Another assay concerns MCF7. Briefly: cells. Particulars: Homo sapiens. The assay is classed as functional, cell-based.
Assay [6] is described as follows: cells. Format: functional, cell-based. Particulars: Homo sapiens, HCC827.
Description: Antiproliferative activity against human HCC827 cells after hrs by ATP content assay
The nature of assay [7]: cells. Particulars: Homo sapiens, Hep3B. The assay is classed as functional, cell-based, Hep 3B2.
Description: Antiproliferative activity against human Hep3B2 cells after hrs by ATP content assay
A further assay has as its system SK-HEP1. Nature of the assay: cells. The assay is classed as functional, cell-based. Particulars: Homo sapiens.
Assay [8] relates to NCI-H358. Briefly: cells. Format: functional, cell-based. Particulars: Homo sapiens.
Description: Antiproliferative activity against human NCI-H358 cells after hrs by ATP content assay
Another assay has as its system NCI-H460. Briefly: cells. The assay is classed as functional, cell-based. Particulars: Homo sapiens.
The test system of another assay is CAPAN-1. Briefly: cells. Format: functional, cell-based. Particulars: Homo sapiens.
In another assay the test system is BXPC-3. Nature of the assay: cells. Format: functional, cell-based. Particulars: Homo sapiens.
The test system of assay [9] is HepG2. Briefly: Antitumor activity against human HepG2 cells xenografted in nude CD1 mouse assessed as tumor regression at 120 mg/kg, iv daily relative to control. The assay is classed as functional. In general terms: In xenograft studies the graft and the host belong to different species.
Assay [10] deals with MDA-MB-468. Briefly: Antitumor activity against human MDA-MB-468 cells xenografted in nude CD1 mouse assessed as tumor regression at 120 mg/kg, iv daily relative to control. The assay is classed as functional.
The subject of the next assay is HCT-116. Briefly: Antitumor activity against human HCT116 cells xenografted in nude CD1 mouse at 60 mg/kg, iv dosed daily on 5-2-5 (on-off-on) schedule relative to control. The assay is classed as functional.
A further assay deals with CAL-27. Briefly: Antitumor activity against human CAL27 cells xenografted in nude CD1 mouse assessed as tumor regression at 120 mg/kg, iv daily relative to control. The assay is classed as functional.
Assay [11] concerns the target NAD-dependent protein deacetylase sirtuin-3, mitochondrial (Homo sapiens) (UniProt Q9NTG7). Briefly: Inhibition of human SIRT3 expressed in Escherichia coli.
A further assay relates to HPAC. Briefly: Antitumor activity against human HPAC cells xenografted in nude CD1 mouse at 120 mg/kg, iv daily relative to control. Format: functional.
Assay [12] deals with Fibroblast growth factor receptor 2 (Homo sapiens, UniProt P21802). Nature of the assay: Inhibition of FGFR2.
Sequence of Fibroblast growth factor receptor 2 (P21802 whole entry): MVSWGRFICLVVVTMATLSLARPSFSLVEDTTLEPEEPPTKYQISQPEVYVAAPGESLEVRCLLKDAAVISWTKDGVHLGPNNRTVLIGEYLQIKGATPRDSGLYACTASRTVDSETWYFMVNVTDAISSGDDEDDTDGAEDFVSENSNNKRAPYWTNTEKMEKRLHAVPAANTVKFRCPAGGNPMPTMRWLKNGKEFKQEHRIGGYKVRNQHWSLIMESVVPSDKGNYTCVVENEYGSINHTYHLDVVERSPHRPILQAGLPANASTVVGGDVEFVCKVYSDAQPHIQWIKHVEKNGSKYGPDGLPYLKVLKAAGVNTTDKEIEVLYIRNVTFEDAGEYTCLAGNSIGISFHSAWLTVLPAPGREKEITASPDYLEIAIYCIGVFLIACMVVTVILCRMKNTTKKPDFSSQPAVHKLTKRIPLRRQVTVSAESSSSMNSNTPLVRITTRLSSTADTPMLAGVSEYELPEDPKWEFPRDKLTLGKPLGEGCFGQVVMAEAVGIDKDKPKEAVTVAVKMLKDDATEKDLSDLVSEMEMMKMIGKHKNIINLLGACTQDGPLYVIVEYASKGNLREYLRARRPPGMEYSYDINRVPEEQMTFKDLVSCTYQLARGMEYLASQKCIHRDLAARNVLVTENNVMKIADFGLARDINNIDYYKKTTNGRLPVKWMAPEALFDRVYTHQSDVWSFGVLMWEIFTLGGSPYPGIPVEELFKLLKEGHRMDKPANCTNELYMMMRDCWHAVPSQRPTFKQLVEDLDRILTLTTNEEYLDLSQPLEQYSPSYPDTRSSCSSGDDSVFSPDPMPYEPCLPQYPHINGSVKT
For assay [13], the target named is Tyrosine-protein kinase Lyn (Homo sapiens, UniProt P07948). Nature of the assay: Inhibition of Lyn.
For assay [14], the system named is NCI-H358. Nature of the assay: Antitumor activity against human NCI-H358 cells xenografted in nude CD1 mouse at 60 mg/kg, iv dosed daily on 7-6-5 (on-off-on) schedule relative to control. Format: functional.
Assay [15] concerns the target NAD-dependent protein deacetylase sirtuin-1 (Homo sapiens) (UniProt Q96EB6). Nature of the assay: Inhibition of human SIRT1 expressed in Escherichia coli.
Assay [16] has as its target NAD-dependent protein deacetylase sirtuin-2 (Homo sapiens) (UniProt Q8IXJ6). Briefly: Inhibition of human SIRT2 expressed in Escherichia coli.
Assay [17] has as its target Receptor-type tyrosine-protein kinase FLT3 (Homo sapiens, UniProt P36888). Nature of the assay: Inhibition of Flt3.
For assay [18], the system named is NCI-H358. Briefly: Antitumor activity against human NCI-H358 cells xenografted in nude CD1 mouse at 15 mg/kg, iv dosed daily on 7-6-5 (on-off-on) schedule relative to control. Format: functional.
Another assay relates to A549. Briefly: Antitumor activity against human A549 cells xenografted in nude CD1 mouse at 120 mg/kg, iv daily relative to control. Format: functional.
The target in assay [19] is Tyrosine-protein kinase Lck (Homo sapiens, UniProt P06239). Briefly: Inhibition of Lck.
Sequence of Tyrosine-protein kinase Lck (P06239 whole entry): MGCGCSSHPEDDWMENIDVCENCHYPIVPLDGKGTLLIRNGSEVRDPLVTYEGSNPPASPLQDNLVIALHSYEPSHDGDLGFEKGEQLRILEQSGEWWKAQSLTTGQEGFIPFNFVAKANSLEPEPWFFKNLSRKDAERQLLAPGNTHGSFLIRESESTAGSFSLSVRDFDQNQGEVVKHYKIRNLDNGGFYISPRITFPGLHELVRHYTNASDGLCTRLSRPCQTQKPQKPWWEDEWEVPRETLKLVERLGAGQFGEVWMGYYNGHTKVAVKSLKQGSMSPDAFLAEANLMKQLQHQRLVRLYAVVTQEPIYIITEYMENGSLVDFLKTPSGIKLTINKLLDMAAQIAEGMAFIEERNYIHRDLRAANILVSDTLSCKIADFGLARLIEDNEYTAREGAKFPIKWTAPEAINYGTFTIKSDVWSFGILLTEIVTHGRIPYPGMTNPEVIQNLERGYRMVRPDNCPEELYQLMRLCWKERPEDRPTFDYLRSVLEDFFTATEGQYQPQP
Assay [20] deals with Proto-oncogene tyrosine-protein kinase Src (Homo sapiens, UniProt P12931). Nature of the assay: Inhibition of Src.
For assay [21], the target named is Vascular endothelial growth factor receptor 2 (Homo sapiens, UniProt P35968). Briefly: Inhibition of KDR.
The test system of assay [22] is NCI-H358. Nature of the assay: Antitumor activity against human NCI-H358 cells xenografted in nude CD1 mouse at 30 mg/kg, iv dosed daily on 7-6-5 (on-off-on) schedule relative to control. The assay is classed as functional.
In assay [23] the test system is MDA-MB-468. Nature of the assay: Antitumor activity against human MDA-MB-468 cells xenografted in nude CD1 mouse at 75 mg/kg, po bid relative to control.

Here are results for 27 molecules from ChEMBL document CHEMBL1157563 (J Med Chem, 2010).

SMILES strings stand for the structures. Active and inactive are the calls of the source. The rule behind the calls is not given here.

Sequence of Receptor tyrosine-protein kinase erbB-2 (P04626 whole entry): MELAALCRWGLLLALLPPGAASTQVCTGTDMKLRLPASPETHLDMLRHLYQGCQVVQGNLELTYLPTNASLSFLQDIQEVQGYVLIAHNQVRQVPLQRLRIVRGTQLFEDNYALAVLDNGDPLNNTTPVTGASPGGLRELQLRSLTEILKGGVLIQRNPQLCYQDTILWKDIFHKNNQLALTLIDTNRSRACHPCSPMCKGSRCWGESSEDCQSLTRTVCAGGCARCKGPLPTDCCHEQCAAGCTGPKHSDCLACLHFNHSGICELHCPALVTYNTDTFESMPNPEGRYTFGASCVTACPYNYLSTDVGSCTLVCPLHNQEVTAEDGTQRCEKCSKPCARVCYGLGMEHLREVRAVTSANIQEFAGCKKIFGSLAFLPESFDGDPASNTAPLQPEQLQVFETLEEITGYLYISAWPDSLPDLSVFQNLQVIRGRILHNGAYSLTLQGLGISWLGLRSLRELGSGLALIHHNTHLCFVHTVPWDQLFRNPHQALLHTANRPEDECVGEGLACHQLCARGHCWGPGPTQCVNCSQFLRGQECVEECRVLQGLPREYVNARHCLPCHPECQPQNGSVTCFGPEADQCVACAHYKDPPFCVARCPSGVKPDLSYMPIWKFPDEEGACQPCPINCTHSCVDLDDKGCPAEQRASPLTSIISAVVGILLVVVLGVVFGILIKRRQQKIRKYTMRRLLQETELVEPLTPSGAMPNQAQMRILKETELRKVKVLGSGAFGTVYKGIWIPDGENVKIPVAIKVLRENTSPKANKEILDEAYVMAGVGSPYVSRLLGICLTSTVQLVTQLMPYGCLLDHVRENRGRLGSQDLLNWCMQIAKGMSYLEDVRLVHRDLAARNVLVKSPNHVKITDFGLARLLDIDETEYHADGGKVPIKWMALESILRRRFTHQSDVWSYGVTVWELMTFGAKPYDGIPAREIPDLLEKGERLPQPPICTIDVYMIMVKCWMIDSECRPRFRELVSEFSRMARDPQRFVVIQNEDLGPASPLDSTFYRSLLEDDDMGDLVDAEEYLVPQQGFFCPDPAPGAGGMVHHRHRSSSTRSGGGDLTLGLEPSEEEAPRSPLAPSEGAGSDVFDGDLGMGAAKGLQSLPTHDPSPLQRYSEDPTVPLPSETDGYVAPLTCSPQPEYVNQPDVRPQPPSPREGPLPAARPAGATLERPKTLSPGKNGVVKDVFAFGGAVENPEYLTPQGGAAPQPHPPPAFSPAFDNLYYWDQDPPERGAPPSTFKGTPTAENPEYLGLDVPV
Sequence of Epidermal growth factor receptor (P00533 whole entry): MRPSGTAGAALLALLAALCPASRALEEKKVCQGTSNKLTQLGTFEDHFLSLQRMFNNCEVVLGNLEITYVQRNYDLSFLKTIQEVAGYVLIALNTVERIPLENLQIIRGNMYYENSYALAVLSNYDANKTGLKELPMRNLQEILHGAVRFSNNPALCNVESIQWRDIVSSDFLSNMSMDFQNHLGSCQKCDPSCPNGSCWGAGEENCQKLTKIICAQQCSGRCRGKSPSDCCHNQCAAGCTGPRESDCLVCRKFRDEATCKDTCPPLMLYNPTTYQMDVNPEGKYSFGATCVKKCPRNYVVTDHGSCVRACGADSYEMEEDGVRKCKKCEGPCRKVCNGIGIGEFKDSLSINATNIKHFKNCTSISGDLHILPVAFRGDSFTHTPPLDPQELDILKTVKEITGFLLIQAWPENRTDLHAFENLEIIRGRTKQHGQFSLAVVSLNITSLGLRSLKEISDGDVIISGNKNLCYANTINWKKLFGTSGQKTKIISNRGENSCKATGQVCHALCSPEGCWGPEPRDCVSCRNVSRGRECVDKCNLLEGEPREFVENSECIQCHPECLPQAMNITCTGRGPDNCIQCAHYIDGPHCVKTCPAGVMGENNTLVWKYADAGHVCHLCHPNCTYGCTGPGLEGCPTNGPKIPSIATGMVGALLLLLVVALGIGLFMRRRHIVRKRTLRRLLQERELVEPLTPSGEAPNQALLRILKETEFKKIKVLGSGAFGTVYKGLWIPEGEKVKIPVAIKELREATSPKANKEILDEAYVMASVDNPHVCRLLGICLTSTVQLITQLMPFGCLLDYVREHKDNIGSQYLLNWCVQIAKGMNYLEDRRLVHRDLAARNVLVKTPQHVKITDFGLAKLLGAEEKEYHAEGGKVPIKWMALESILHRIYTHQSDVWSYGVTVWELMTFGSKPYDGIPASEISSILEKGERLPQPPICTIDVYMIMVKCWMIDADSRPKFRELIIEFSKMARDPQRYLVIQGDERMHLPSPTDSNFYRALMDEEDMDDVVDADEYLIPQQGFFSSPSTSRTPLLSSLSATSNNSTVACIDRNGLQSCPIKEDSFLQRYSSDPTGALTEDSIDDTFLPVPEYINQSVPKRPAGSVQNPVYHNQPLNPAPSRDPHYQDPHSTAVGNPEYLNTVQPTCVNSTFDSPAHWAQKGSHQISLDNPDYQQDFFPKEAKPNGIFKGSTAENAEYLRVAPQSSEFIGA
Sequence of NAD-dependent protein deacetylase sirtuin-1 (Homo sapiens) (Q96EB6 whole entry): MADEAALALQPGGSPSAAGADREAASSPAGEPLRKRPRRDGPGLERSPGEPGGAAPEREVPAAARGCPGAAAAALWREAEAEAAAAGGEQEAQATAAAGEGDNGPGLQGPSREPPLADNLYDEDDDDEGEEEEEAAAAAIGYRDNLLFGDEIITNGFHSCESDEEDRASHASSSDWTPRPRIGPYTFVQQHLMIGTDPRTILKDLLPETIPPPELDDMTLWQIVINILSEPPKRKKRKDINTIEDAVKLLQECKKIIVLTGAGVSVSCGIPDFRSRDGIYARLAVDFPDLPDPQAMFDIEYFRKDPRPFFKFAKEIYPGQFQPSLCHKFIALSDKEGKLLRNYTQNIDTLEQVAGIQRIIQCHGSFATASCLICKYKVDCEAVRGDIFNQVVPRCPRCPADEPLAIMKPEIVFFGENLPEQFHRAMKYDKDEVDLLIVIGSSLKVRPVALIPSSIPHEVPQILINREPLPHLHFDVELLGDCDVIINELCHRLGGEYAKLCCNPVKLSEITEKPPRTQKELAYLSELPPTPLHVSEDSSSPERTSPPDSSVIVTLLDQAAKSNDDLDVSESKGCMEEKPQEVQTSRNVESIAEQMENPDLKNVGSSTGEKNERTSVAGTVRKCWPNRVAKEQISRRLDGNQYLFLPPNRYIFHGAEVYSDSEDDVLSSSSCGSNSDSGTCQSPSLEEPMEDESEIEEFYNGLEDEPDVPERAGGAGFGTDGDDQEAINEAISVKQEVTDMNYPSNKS
Sequence of NAD-dependent protein deacetylase sirtuin-2 (Homo sapiens) (Q8IXJ6 whole entry): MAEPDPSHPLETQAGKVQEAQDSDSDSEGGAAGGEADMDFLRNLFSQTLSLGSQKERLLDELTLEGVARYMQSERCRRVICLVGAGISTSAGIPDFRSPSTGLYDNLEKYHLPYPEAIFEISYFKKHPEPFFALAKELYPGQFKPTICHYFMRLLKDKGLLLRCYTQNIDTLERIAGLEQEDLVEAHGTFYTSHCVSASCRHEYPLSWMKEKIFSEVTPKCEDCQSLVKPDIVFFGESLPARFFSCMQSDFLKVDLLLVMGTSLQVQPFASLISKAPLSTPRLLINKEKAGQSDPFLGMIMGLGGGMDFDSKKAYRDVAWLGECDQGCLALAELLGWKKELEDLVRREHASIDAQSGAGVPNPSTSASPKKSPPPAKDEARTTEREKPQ
Description for BXPC-3: Antiproliferative activity against human BxPC3 cells after hrs by ATP content assay
Description for CAPAN-1: Antiproliferative activity against human Capan1 cells after hrs by ATP content assay
Description for Histone deacetylase: Inhibition of HDAC in human HeLa cell nuclear extract
Description for MCF7: Antiproliferative activity against human MCF7 cells after hrs by ATP content assay
Description for NCI-H460: Antiproliferative activity against human H460 cells after hrs by ATP content assay
Description for SK-BR-3: Antiproliferative activity against human SK-BR-3 cells after hrs by ATP content assay
Description for SK-HEP1: Antiproliferative activity against human SKHEP1 cells after hrs by ATP content assay

Consider `COc1cc2ncnc(Nc3ccc(F)c(Cl)c3)c2cc1NC(=O)CCCCCCC(=O)NO`, for which the IC50 against Histone deacetylase was 15.3 nM; in assay [1], 20.1 nM; in assay [2], 2.1 nM.
For the molecule `C#Cc1cccc(Nc2ncnc3cc(OC)c(OCCCCC(=O)NO)cc23)c1`, the IC50 came out at 421 nM against Histone deacetylase and 38.4 nM in assay [1].
In the case of `COc1cc2ncnc(Nc3ccc(F)c(Cl)c3)c2cc1OCCCCCC(=O)NO`, the IC50 was determined as 31 nM at Histone deacetylase, 20 nM in [1] and 3.4 nM in [2].
Turning to `COc1cc2ncnc(NCc3ccc(Cl)c(F)c3)c2cc1OCCCCCCC(=O)NO`, the IC50 on Histone deacetylase was 11.3 nM; in [1], 478 nM; in [2], 72 nM.
Take `COc1cc2ncnc(Nc3ccc(F)c(Cl)c3)c2cc1OCCCCC(=O)NO`: the IC50 stood at 551 nM against Histone deacetylase, 15 nM in assay [1] and 9.4 nM in assay [2].
Take `COc1cc2ncnc(Nc3ccc(F)c(Cl)c3)c2cc1S(=O)(=O)CCCCCCC(=O)NO`: the IC50 is 121.7 nM at Histone deacetylase, over 2000 nM in assay [1] and 15.4 nM in assay [2].
`C#Cc1cccc(Nc2ncnc3cc(OCCCCCCC(=O)NO)c(OC)cc23)c1`: the IC50 on Histone deacetylase was found to be 34.1 nM; in assay [1] it was 51.6 nM; in assay [2] it was 8.2 nM.
For the molecule `C#Cc1cccc(Nc2ncnc3cc(OCCOC)c(OCCOC)cc23)c1` [ERLOTINIB], the Activity in the assay on HepG2 [3] amounted to 50.8%.
On to `COc1cc2ncnc(NC(C)c3ccc(Cl)cc3)c2cc1OCCCCCCC(=O)NO` (single isomer, unassigned), for which the IC50 was 188 nM on Histone deacetylase, 557 nM in assay [1] and 614 nM in [2].
As for `COc1cc2ncnc(Nc3ccc(F)c(Cl)c3)c2cc1SCCCCCCC(=O)NO`, the IC50 against Histone deacetylase was 39.6 nM; in [1], 24.2 nM; in [2] it was 1.99 nM.
For `COc1cc2ncnc(Nc3ccc(OCc4cccc(F)c4)c(Cl)c3)c2cc1OCCCCCCC(=O)NO`, in that order: 58.1 nM, 10.1 nM and 9.08 nM.
In the case of `COc1cc2ncnc(N[C@H](C)c3ccccc3)c2cc1OCCCCCCC(=O)NO`, the results for the IC50 (against Histone deacetylase; in assay [1]) were 98.4 nM and 27.8 nM, respectively.
With `COc1cc2ncnc(N[C@@H](C)c3ccccc3)c2cc1OCCCCCCC(=O)NO`, the figures for the half-inhibitory concentration (IC50) (against Histone deacetylase; in assay [1]) were 25.7 nM and over 2000 nM, respectively.
Regarding `C#Cc1cccc(Nc2ncnc3cc(OC)c(OCCCCCC(=O)NO)cc23)c1`, the IC50 against Histone deacetylase was found to be 13.2 nM; in assay [1] it was 38.2 nM; in assay [2] it was 4.6 nM.
For `COc1cc2ncnc(Nc3ccc(F)c(Cl)c3)c2cc1OCCCC(=O)NO`, in that order: over 100000 nM, 12.4 nM and 7.8 nM.
`O=C(CCCCCCC(=O)Nc1ccccc1)NO` [VORINOSTAT]: the IC50 in the assay on MDA-MB-231 worked out at 2110 nM; with HepG2 [5], 1660 nM. Also, the Activity in the assay with HepG2 [4] is given as 26%.
As for `COCCOc1cc2ncnc(Nc3ccc(F)c(Cl)c3)c2cc1OCCCCCCC(=O)NO`, the figures for the IC50 (against Histone deacetylase; in assay [1]; in assay [2]) were 8.4 nM, 24 nM and 10.4 nM, respectively.
For `COc1cc2ncnc(Nc3ccc(F)c(Cl)c3)c2cc1OCCC(=O)NO`, in that order: 40900 nM, 10.6 nM and 7.1 nM.
As to `COc1cc2ncnc(Nc3ccc(F)c(Cl)c3)c2cc1OCCCCCCC(=O)NO`, the IC50 in the assay with SK-BR-3 was 170 nM; against Histone deacetylase, 6.5 nM; in the assay with MCF7 it was 1100 nM; in the assay on MDA-MB-231, 370 nM; in the assay “cells [6]”, 930 nM; in “cells [7]”, 600 nM. The IC50 in [1] is 19 nM; in the assay on SK-HEP1 it was 330 nM; in the assay with NCI-H358 [8], 710 nM; with NCI-H460, 900 nM; in the assay with HepG2 [5] it was 290 nM; in the assay with CAPAN-1, 1730 nM. Besides, it took 380 nM to reach half-maximal inhibition in the assay on BXPC-3 (IC50).
Regarding `C#Cc1cc(Nc2ncnc3cc(OC)c(OCCCCCCC(=O)NO)cc23)ccc1F`, the IC50 against Histone deacetylase is 3.4 nM; in assay [1] it was 76.5 nM; in [2] it was 28.8 nM.
`COc1cc2c(Nc3ccc(F)c(Cl)c3)ncnc2cc1OCCCCCCC(=O)NO`: the half-inhibitory concentration (IC50) came out at 66.6 nM at Histone deacetylase, 71.2 nM in assay [1] and 7 nM in assay [2].
On to `COc1cc2ncnc(NCc3ccc(F)cc3)c2cc1OCCCCCCC(=O)NO`, for which the concentration for half-maximal inhibition (IC50) against Histone deacetylase is 5.6 nM; in [1] it was 295 nM.
Regarding `C#Cc1cccc(Nc2ncnc3cc(OC)c(OCCCCCCC(=O)NO)cc23)c1` [CUDC-101], the concentration for half-maximal inhibition (IC50) with SK-BR-3 is 40 nM; in the assay on MCF7, 550 nM; in the assay with MDA-MB-231 it was 100 nM; in “cells [6]” it was 600 nM; in the assay “cells [7]” it was 230 nM; in assay [12] it was 3430 nM. Besides, the IC50 in [13] was 840 nM; in the assay on SK-HEP1, 220 nM; in the assay with NCI-H358 [8], 400 nM; in assay [17] it was 1500 nM; in the assay on NCI-H460, 700 nM; in the assay with HepG2 [5] it was 130 nM. The IC50 in assay [19] amounted to 5910 nM; in assay [20], 11000 nM; in assay [21], 849 nM; with CAPAN-1, 800 nM; in the assay with BXPC-3 it was 270 nM. The Activity in the assay on HepG2 [9] was -21.3%; in the assay with MDA-MB-468 [10], -13.7%; with HCT-116, 35.3%; in the assay on CAL-27, -36.5%; in the assay with HPAC it was 35.1%; with NCI-H358 [14], 6.5%. The Activity in the assay on NCI-H358 [18] worked out at 41.9%; in the assay with A549, 35.9%; with NCI-H358 [22], 10.3%. Also, the result in [11], in assay [15] and in assay [16] was inactive.
`COc1cc2ncnc(NC(C)c3ccc(F)cc3)c2cc1OCCCCCCC(=O)NO` (single isomer, unassigned): the figures for the IC50 (against Histone deacetylase; in assay [1]; in [2]) were 165.3 nM, 175 nM and 126 nM, respectively.
On to `CS(=O)(=O)CCNCc1ccc(-c2ccc3ncnc(Nc4ccc(OCc5cccc(F)c5)c(Cl)c4)c3c2)o1` [LAPATINIB], for which the IC50 in the assay on SK-BR-3 was found to be 40 nM; with MCF7, 6600 nM; in the assay on MDA-MB-231, 5400 nM; in the assay “cells [7]”, 5490 nM; in the assay with SK-HEP1 it was 5300 nM; in the assay with HepG2 [5], 6270 nM. Further, the Activity in the assay on MDA-MB-468 [23] stood at 51%.
With `COc1cc2ncnc(NCc3ccccc3)c2cc1OCCCCCCC(=O)NO`, the values for the 50% inhibitory concentration (IC50) (on Histone deacetylase; in [1]; in [2]) were 4.2 nM, 225 nM and 99.4 nM, respectively.
The corresponding values for `O=C(CCCCCCOc1ccc2ncnc(Nc3ccc(F)c(Cl)c3)c2c1)NO` are 4.4 nM, 43.5 nM and 84.2 nM.

Usually IC50 stands for the concentration that inhibits the measured activity by half.
